From patent US8999957B2, “Heterocyclic compounds as ERK inhibitors” (Merck Sharp & Dohme Corp., priority 2010, dated 2015)

Biological target: fully phosphorylated, active Mouse ERK2 protein (Mus musculus (Mouse), UniProt P63085)
Assay: Active ERK2 (aERK) IMAP assay, condition 1
Format: biochemical
Conditions: aERK assay condition 1, 30 μM ATP
Method: Active ERK2 (aERK) Assay: (Unless Indicated Otherwise, the Data Provided for aERK was obtained using Condition 1)
Activated ERK2 activity was also determined in the IMAP assay format using the procedure outlined above. […] Reactions proceeded for 30 minutes before termination by addition of 60 μl IMAP detection beads in binding buffer. Plates were read as above after 30 minute binding equilibration.

Sequence of fully phosphorylated, active Mouse ERK2 protein (P63085 whole entry): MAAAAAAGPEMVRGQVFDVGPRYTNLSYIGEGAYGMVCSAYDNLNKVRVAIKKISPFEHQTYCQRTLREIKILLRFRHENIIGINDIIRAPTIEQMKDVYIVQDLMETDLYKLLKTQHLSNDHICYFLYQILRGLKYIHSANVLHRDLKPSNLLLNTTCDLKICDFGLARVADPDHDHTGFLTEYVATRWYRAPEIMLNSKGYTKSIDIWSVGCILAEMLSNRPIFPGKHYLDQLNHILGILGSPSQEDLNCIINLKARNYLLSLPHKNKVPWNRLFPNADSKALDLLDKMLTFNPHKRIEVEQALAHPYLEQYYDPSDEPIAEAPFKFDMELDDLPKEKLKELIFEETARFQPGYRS

Structure (SMILES) | IC50 [nM]
O=C(N[C@@H]1CCCN(Cc2ccccc2C(F)(F)F)C1)c1ccc2[nH]nc(-c3ccc4c(c3)CCO4)c2c1 | 1000
N#Cc1cccc(CN2CCC[C@@H](NC(=O)c3ccc4[nH]nc(-c5ccc6c(c5)CCO6)c4c3)C2)c1 | 999
O=C(N[C@@H]1CCCN(Cc2c(F)cccc2F)C1)c1ccc2[nH]nc(-c3ccc4c(c3)CCO4)c2c1 | 173
CN1CC[C@@H](c2ccccc2)[C@H](NC(=O)c2ccc3[nH]nc(-c4ccc5c(c4)CCO5)c3c2)C1 | 118
CCN1CC[C@@H](c2ccccc2)[C@H](NC(=O)c2ccc3[nH]nc(-c4ccc(OC(C)C)cc4)c3c2)C1 | 650
CC(C)Oc1ccc(-c2n[nH]c3ccc(C(=O)N[C@@H]4CN(C)CC[C@H]4c4ccccc4)cc23)cc1 | 300
CC(C)Oc1ccc(-c2n[nH]c3ccc(C(=O)N[C@@H]4CNCC[C@H]4c4ccccc4)cc23)cn1 | 84.9
CC(C)Oc1ccc(-c2n[nH]c3ccc(C(=O)N[C@@H]4CN(C)CC[C@H]4c4ccccc4)cc23)cn1 | 300
CCN1CC[C@@H](c2ccccc2)[C@H](NC(=O)c2ccc3[nH]nc(-c4ccc(OC(C)C)nc4)c3c2)C1 | 300
[2H]C([2H])([2H])N1CC[C@@H](c2ccccc2)[C@H](NC(=O)c2ccc3[nH]nc(-c4ccc(OC(C)C)cc4)c3c2)C1 | 300
CC(C)(C)OC(=O)N1CC[C@@H](c2ccccc2)[C@H](NC(=O)c2ccc3[nH]nc(-c4ccc5c(c4)CCO5)c3c2)C1 | 300
CC(C)Oc1cc(-c2n[nH]c3ccc(C(=O)N[C@@H]4CNCC[C@H]4c4ccccc4)cc23)ccn1 | 141
COc1cccc(F)c1CN1CCCCC(NC(=O)c2ccc3[nH]nc(-c4ccncc4)c3c2)C1 (centres unmarked) | 231
O=C(NC1CCCCN(Cc2c(F)cccc2F)C1)c1ccc2[nH]nc(-c3ccncc3)c2c1 (centres unmarked) | 148
O=C(NC1CCCCN(Cc2ccccn2)C1)c1ccc2[nH]nc(-c3ccncc3)c2c1 (centres unmarked) | 369
O=C(NC1CCCCN(Cc2ccccc2)C1)c1ccc2[nH]nc(-c3ccncc3)c2c1 (centres unmarked) | 249
O=C(NC1CN(C(=O)OCc2ccccc2)CC(F)(F)C1)c1ccc2[nH]nc(-c3ccncc3)c2c1 (centres unmarked) | 105
O=C(NC1CN(Cc2c(F)cccc2F)CC(F)(F)C1)c1ccc2[nH]nc(-c3ccncc3)c2c1 (centres unmarked) | 241
O=C(N[C@@H]1CCCNC1)c1ccc2[nH]nc(-c3ccncc3)c2c1 | 835
Cc1cc(-c2n[nH]c3ccc(C(=O)N[C@@H]4CCCN(CC(O)c5ccccc5F)C4)cc23)ccn1 (some centres unmarked) | 181
COc1cccc(F)c1CN1C[C@H](NC(=O)c2ccc3[nH]nc(-c4ccc5nccn5c4)c3c2)C[C@@H](C(F)(F)F)C1 | 181

Structure (SMILES) | IC50 [nM]
COc1cccc(F)c1CN1CCC(O[Si](C)(C)C(C)(C)C)C(NC(=O)c2ccc3[nH]nc(-c4ccc5nccn5c4)c3c2)C1 (centres unmarked) | 318
COC(=O)[C@@H]1CC[C@@H](NC(=O)c2ccc3[nH]nc(-c4ccncc4)c3c2)CN1 | 144
O=C(NC12CC1CCN(Cc1ccccc1)C2)c1ccc2[nH]nc(-c3ccc4nccn4c3)c2c1 (centres unmarked) | 200
CC(C)C(NC(=O)[C@@H]1CC[C@@H](NC(=O)c2ccc3[nH]nc(-c4ccncc4)c3c2)CN1Cc1ccccc1)C(C)C | 262
O=C(NC1CCCCN(CC2CCc3ccccc32)C1)c1ccc2[nH]nc(-c3ccncc3)c2c1 (centres unmarked) | 85.4
O=C(N[C@@H]1CC[C@H](C(=O)NCc2ccccc2)NC1)c1ccc2[nH]nc(-c3ccncc3)c2c1 | 371
O=C(N[C@@H]1CC[C@@H](C(=O)NCc2ccccc2)NC1)c1ccc2[nH]nc(-c3ccncc3)c2c1 | 120
O=C(N[C@H]1CN(Cc2c(F)cccc2F)CC(F)(F)C1)c1ccc2[nH]nc(-c3ccc4nccn4c3)c2c1 | 234
O=C(NC12CC1CCN(Cc1c(F)cccc1F)C2)c1ccc2[nH]nc(-c3ccc4nccn4c3)c2c1 (centres unmarked) | 136
COc1cccc(F)c1CN1CCC2CC2(NC(=O)c2ccc3[nH]nc(-c4ccc5nccn5c4)c3c2)C1 (centres unmarked) | 86
CN1C[C@H](NC(=O)c2ccc3[nH]nc(-c4ccncc4)c3c2)CC[C@H]1C(=O)NCc1ccccc1 | 350
COc1ccccc1CN1CC(NC(=O)c2ccc3[nH]nc(-c4ccncc4)c3c2)CC(F)(F)C1 (centres unmarked) | 167
Cc1cccc(C)c1CN1CC(NC(=O)c2ccc3[nH]nc(-c4ccncc4)c3c2)CC(F)(F)C1 (centres unmarked) | 457
Cn1cc2cc(-c3n[nH]c4ccc(C(=O)N[C@H]5C[C@@H](C(F)(F)F)CN(Cc6c(F)cccc6F)C5)cc34)ccc2n1 | 375
COC[C@H]1CC[C@@H](NC(=O)c2ccc3[nH]nc(-c4ccncc4)c3c2)CN1Cc1c(F)cccc1OC | 456
COc1cccc(F)c1CN1C[C@@H](C)C[C@@H](NC(=O)c2ccc3[nH]nc(-c4ccc5nonc5c4)c3c2)C1 | 128
Cn1cnnc1CN1CCC[C@@H](NC(=O)c2ccc3[nH]nc(-c4ccncc4)c3c2)C1 | 231
CCOC(=O)C1CCN(Cc2ccccc2)CC1NC(=O)c1ccc2[nH]nc(-c3ccncc3)c2c1 (centres unmarked) | 191
Cc1cc(-c2n[nH]c3ccc(C(=O)NC4CC[C@H]5CC[C@@H]4N5Cc4ccccc4F)cc23)ccn1 (some centres unmarked) | 9.1
COc1cccc(F)c1CN1C2CCC(NC(=O)c3ccc4[nH]nc(-c5ccnc(C)c5)c4c3)C1CC2 (centres unmarked) | 20.4

Other lines, results leading:

IC50 [nM] | Structure (SMILES)
22.9 | O=C(N[C@@H]1CCCN(Cc2ccc3occc3c2)C1)c1ccc2[nH]nc(-c3ccc4c(c3)CCO4)c2c1
23 | O=C(N[C@@H]1CNCC[C@H]1c1ccccc1)c1ccc2[nH]nc(-c3ccc4c(c3)CCO4)c2c1
27.1 | O=C(N[C@@H]1CNCC[C@H]1c1ccccc1)c1ccc2[nH]nc(-c3ccc4c(c3)OCO4)c2c1
50.1 | O=C(N[C@@H]1CNCC[C@H]1c1ccccc1)c1ccc2[nH]nc(-c3ccc4[nH]c(=O)[nH]c4c3)c2c1
49.9 | CC(C)Oc1ccc(-c2n[nH]c3ccc(C(=O)N[C@@H]4CNCC[C@H]4c4ccccc4)cc23)cc1
13.7 | O=C(N[C@@H]1CNCC[C@H]1c1ccccc1)c1ccc2[nH]nc(-c3ccc4[nH]ncc4c3)c2c1
62.3 | O=C(N[C@@H]1CCCN(c2ccccc2F)C1)c1ccc2[nH]nc(-c3ccncc3)c2c1
79.2 | O=C(NC1CCCCN(Cc2ccccc2F)C1)c1ccc2[nH]nc(-c3ccncc3)c2c1 (centres unmarked)
8.72 | O=C(NC1CCCCN(CCc2ccccc2)C1)c1ccc2[nH]nc(-c3ccncc3)c2c1 (centres unmarked)
62.3 | O=C(N[C@@H]1CCCN(Cc2c(F)cccc2F)C1)c1ccc2[nH]nc(-c3ccnc(Cl)c3)c2c1
17.4 | COc1cccc(F)c1CN1CC(NC(=O)c2ccc3[nH]nc(-c4ccncc4)c3c2)CC(F)(F)C1 (centres unmarked)
72.5 | O=C(NC1CCCCN(CCCc2ccccc2)C1)c1ccc2[nH]nc(-c3ccncc3)c2c1 (centres unmarked)
42.1 | COc1cccc(F)c1CN1CCC(O)C(NC(=O)c2ccc3[nH]nc(-c4ccc5nccn5c4)c3c2)C1 (centres unmarked)
16.3 | COc1cccc(F)c1CN1CCC(F)C(NC(=O)c2ccc3[nH]nc(-c4ccc5nccn5c4)c3c2)C1 (centres unmarked)
5 | O=C(NC1CCCCN(CCc2ccccc2F)C1)c1ccc2[nH]nc(-c3ccncc3)c2c1 (centres unmarked)
40.7 | COC(=O)[C@@H]1CC[C@@H](NC(=O)c2ccc3[nH]nc(-c4ccncc4)c3c2)CN1Cc1ccccc1
68.9 | COc1cccc(F)c1CN1CCC[C@@H](NC(=O)c2ccc3[nH]nc(-c4ccn5ncnc5c4)c3c2)C1
22.2 | COc1cccc(F)c1CN1CCC[C@@H](NC(=O)c2ccc3[nH]nc(-c4ccc5nc(C)nn5c4)c3c2)C1
6.46 | COc1cccc(F)c1CN1CCC[C@@H](NC(=O)c2ccc3[nH]nc(-c4ccc5nncn5c4)c3c2)C1
26.8 | COc1cccc(F)c1CN1CC(NC(=O)c2ccc3[nH]nc(-c4ccnc(C)c4)c3c2)CCC1C (centres unmarked)

IC50 [nM] | Structure (SMILES)
69.2 | COc1cccc(F)c1CN1C[C@H](NC(=O)c2ccc3[nH]nc(-c4ccc5nccn5c4)c3c2)CCC1=O
51.3 | CN(C)C(=O)[C@@H]1CC[C@@H](NC(=O)c2ccc3[nH]nc(-c4ccncc4)c3c2)CN1Cc1ccccc1
31.1 | COc1ccccc1CCN1CCCCC(NC(=O)c2ccc3[nH]nc(-c4ccncc4)c3c2)C1 (centres unmarked)
3.67 | COc1cccc(F)c1CN1C[C@@H](C)C[C@@H](NC(=O)c2ccc3[nH]nc(-c4ccc5nc(C)sc5c4)c3c2)C1
23.9 | COc1cccc(F)c1CN1C[C@H](NC(=O)c2ccc3[nH]nc(-c4ccc5nccn5c4)c3c2)CC(F)(F)C1
40.5 | COC(=O)[C@@H]1CC[C@@H](NC(=O)c2ccc3[nH]nc(-c4ccncc4)c3c2)CN1Cc1c(F)cccc1OC
15.2 | COc1cccc(F)c1CN1C[C@H](C)C[C@H](NC(=O)c2ccc3[nH]nc(-c4ccc5ncsc5c4)c3c2)C1
39.8 | Cn1cc2cc(-c3n[nH]c4ccc(C(=O)N[C@@H]5C[C@H](C(F)(F)F)CN(Cc6c(F)cccc6F)C5)cc34)ccc2n1
3.58 | COc1cccc(F)c1CN1C[C@H](NC(=O)c2ccc3[nH]nc(-c4ccncc4)c3c2)CCC1CO (some centres unmarked)
36.2 | O=C(N[C@@H]1CCCN(Cc2c(F)cccc2F)C1)c1ccc2[nH]nc(-c3ccncc3)c2c1
43.3 | O=C(NC1CCCCN(CCc2c(F)cccc2F)C1)c1ccc2[nH]nc(-c3ccncc3)c2c1 (centres unmarked)
13.9 | COc1cccc(F)c1CN1CCC[C@@H](NC(=O)c2ccc3[nH]nc(-c4ccncc4)c3c2)C1
73.6 | COc1cccc(F)c1CN1C[C@H](C)C[C@H](NC(=O)c2ccc3[nH]nc(-c4ccc5nsnc5c4)c3c2)C1
15.1 | COc1cccc(F)c1CN1C[C@@H](C)C[C@@H](NC(=O)c2ccc3[nH]nc(-c4ccn5ncnc5c4)c3c2)C1
61.3 | COc1cccc(F)c1CN1C[C@@H](C)C[C@@H](NC(=O)c2ccc3[nH]nc(-c4nc5ccccc5s4)c3c2)C1
16.9 | COCCOc1cccc(F)c1CN1CCC[C@@H](NC(=O)c2ccc3[nH]nc(-c4ccncc4)c3c2)C1
20.8 | O=C(NC1COCCN(CCc2c(F)cccc2F)C1)c1ccc2[nH]nc(-c3ccncc3)c2c1 (centres unmarked)
9.84 | O=C(NC1COCCN(CCc2ccccc2F)C1)c1ccc2[nH]nc(-c3ccncc3)c2c1 (centres unmarked)
61.6 | O=C(NC1COCCN(CCc2cccc(F)c2)C1)c1ccc2[nH]nc(-c3ccncc3)c2c1 (centres unmarked)
